Source: publication PMC8000041, “New Insights into the Metabolism of the Flavanones Eriocitrin and Hesperidin: A Comparative Human Pharmacokinetic Study” (Antioxidants, 2021)
Where two headings read alike, the source gives them in different places.

Legend:
[1] = Plasma metabolites and pharmacokinetics after single intake of lemon or orange extract (UPLC-ESI-QTOF-MS, non-compartmental analysis); type: in vivo, human; conditions: for Occurrence Plasma LE (number of volunteers in whom the metabolite was detected): after consuming lemon extract; for Occurrence Plasma LE (number of volunteers in whom the metabolite was detected) / Occurrence Plasma OE (number of volunteers in whom the metabolite was detected): n = 16 volunteers; for Occurrence Plasma OE (number of volunteers in whom the metabolite was detected): after consuming orange extract; for Tmax / Cmax / AUC(0-t): mean ± SD; for AUC(0-t): read-out: AUC0-t
Description: Secondary endpoints involved the evaluation of post-prandial changes in several biomarkers dealing with metabolism, inflammation, and oxidative stress after a high-fat-high-sugars meal. The design was a randomized pharmacokinetic, double-blind, crossover, single-dose trial consisted of 2 test-phases. The volunteers were randomly allocated into two groups using a computerized random number list. Each group consumed one of the citrus extracts by following a test-phase that lasted for 1 day for blood sampling and urine collection, a 2-week washout period between each test phase, and crossover before consuming the other extract. The volunteers were instructed to avoid the consumption of flavanone-containing products, from a list provided by the researchers, for 1 week before the study and during the wash-out phase (citrus fruit juices, tomatoes, tomato-based sauces (like ‘ketchup’), peppers, almonds, etc.). […] The 3 capsules provided a total of 1.95 g orange extract, containing 260 mg hesperidin, and 3.1 g lemon extract, containing 260 mg eriocitrin. […] Plasma samples were obtained by centrifugation of peripheral venous blood at 14,000× g for 15 min at 4 °C and immediately frozen at −80 °C. Glucose, total cholesterol, HDL-cholesterol, LDL-cholesterol, triglycerides, insulin, homeostatic model assessment insulin resistance (HOMA-IR), gamma-glutamyl transferase (GGT), and alanine aminotransferase (ALT) were determined as previously reported. […] A previously validated method for analyzing phenolic metabolites in biological samples, including flavanone-derived metabolites, was used. […] After centrifugation at 14,000× g for 10 min at 4 °C, the supernatant was evaporated in a speed vacuum concentrator. Finally, samples were re-suspended in 100 µL of methanol, filtered through a 0.22 µm cellulose filters before analysis by UPLC- ESI-QTOF-MS. A targeted screening strategy was applied to identify metabolites that could be present after consuming the citrus extracts. Twenty-eight possible compounds were browsed in all the samples. The list of compounds included the polyphenols present in the extracts, with particular focus on the flavanone rutinosides hesperidin and eriocitrin, their respective aglycones hesperetin, and eriodictyol, as well as their derived phase-II conjugates (glucuronides, sulfates, sulfoglucuronides, etc.). The exact mass of each proposed compound was extracted using an extraction window of 0.01 m/z. The metabolites hesperetin 7-O-glucuronide, hesperetin 3′-O-glucuronide, hesperetin 3-O-sulfate, naringenin 4′-O-glucuronide, and naringenin 7′-O-glucuronide were quantified with their corresponding standards. […] The parent phenolic compounds were quantified with their corresponding standards. In the case of some relevant conjugated metabolites, which standards were not available (eriodictyol and homoeriodictyol conjugates), their quantification was achieved by using relative response factors (RRFs) as previously described. Briefly, RRFs are useful to check the different responses of metabolites in the mass spectrometer vs. their UV signal. While the ionization response of free vs. conjugated forms is usually very different, their UV signal response is quite similar. To this purpose, we injected in a HPLC-DAD-ESI-Q (MS) the plasma samples (n = 5) with the highest concentrations of those conjugated metabolites. Concentrations were calculated by integrating the area from their corresponding UV peaks and compared with the UV peak area of a known concentration of their corresponding available parent compounds (eriodictyol and homoeriodictyol). The concentrations calculated were used to compare the MS response for each conjugated-aglycone pair. Statistical analyses were carried out using the SPSS Software, version 23.0 (SPSS Inc., Chicago, IL, USA). Data are expressed as mean ± SD. The empirical distribution of data with the normality assumption was tested with the Shapiro-Wilk test. […]

[2] = Urinary excretion of flavanone-derived metabolites after single intake of lemon or orange extract (UPLC-ESI-QTOF-MS); type: in vivo, human; conditions: for Urinary excretion F1: urine fraction 0-4 h; for Urinary excretion F1 / Urinary excretion Total F / Urinary excretion F2 / Urinary excretion F3 / Urinary excretion F4: mean ± SD; for Urinary excretion Total F: sum of fractions F1-F4 (24 h); for Urinary excretion F2: urine fraction 4-8 h; for Urinary excretion F3: urine fraction 8-10 h; for Urinary excretion F4: urine fraction 10-24 h; for Occurrence Urine LE (number of volunteers in whom the metabolite was detected): after consuming lemon extract; for Occurrence Urine LE (number of volunteers in whom the metabolite was detected) / Occurrence Urine OE (number of volunteers in whom the metabolite was detected): n = 16 volunteers; for Occurrence Urine OE (number of volunteers in whom the metabolite was detected): after consuming orange extract; for Urinary excretion after lemon extract vs. orange extract: ratio lemon / orange extract intake
Description: Secondary endpoints involved the evaluation of post-prandial changes in several biomarkers dealing with metabolism, inflammation, and oxidative stress after a high-fat-high-sugars meal. The design was a randomized pharmacokinetic, double-blind, crossover, single-dose trial consisted of 2 test-phases. The volunteers were randomly allocated into two groups using a computerized random number list. Each group consumed one of the citrus extracts by following a test-phase that lasted for 1 day for blood sampling and urine collection, a 2-week washout period between each test phase, and crossover before consuming the other extract. The volunteers were instructed to avoid the consumption of flavanone-containing products, from a list provided by the researchers, for 1 week before the study and during the wash-out phase (citrus fruit juices, tomatoes, tomato-based sauces (like ‘ketchup’), peppers, almonds, etc.). […] The 3 capsules provided a total of 1.95 g orange extract, containing 260 mg hesperidin, and 3.1 g lemon extract, containing 260 mg eriocitrin. […] Untreated urine samples were aliquoted and frozen at −80 °C for up to 4 weeks until analyses, avoiding freeze-thaw cycles to avoid metabolites’ deconjugation. Moreover, three measurements of blood pressure and heart rate were taken before each time-point of blood withdrawal. […] A previously validated method for analyzing phenolic metabolites in biological samples, including flavanone-derived metabolites, was used. […] After centrifugation at 14,000× g for 10 min at 4 °C, the supernatant was evaporated in a speed vacuum concentrator. Finally, samples were re-suspended in 100 µL of methanol, filtered through a 0.22 µm cellulose filters before analysis by UPLC- ESI-QTOF-MS. […] A targeted screening strategy was applied to identify metabolites that could be present after consuming the citrus extracts. Twenty-eight possible compounds were browsed in all the samples. The list of compounds included the polyphenols present in the extracts, with particular focus on the flavanone rutinosides hesperidin and eriocitrin, their respective aglycones hesperetin, and eriodictyol, as well as their derived phase-II conjugates (glucuronides, sulfates, sulfoglucuronides, etc.). The exact mass of each proposed compound was extracted using an extraction window of 0.01 m/z. The metabolites hesperetin 7-O-glucuronide, hesperetin 3′-O-glucuronide, hesperetin 3-O-sulfate, naringenin 4′-O-glucuronide, and naringenin 7′-O-glucuronide were quantified with their corresponding standards. […] The parent phenolic compounds were quantified with their corresponding standards. In the case of some relevant conjugated metabolites, which standards were not available (eriodictyol and homoeriodictyol conjugates), their quantification was achieved by using relative response factors (RRFs) as previously described. Briefly, RRFs are useful to check the different responses of metabolites in the mass spectrometer vs. their UV signal. While the ionization response of free vs. conjugated forms is usually very different, their UV signal response is quite similar. To this purpose, we injected in a HPLC-DAD-ESI-Q (MS) the plasma samples (n = 5) with the highest concentrations of those conjugated metabolites. Concentrations were calculated by integrating the area from their corresponding UV peaks and compared with the UV peak area of a known concentration of their corresponding available parent compounds (eriodictyol and homoeriodictyol). The concentrations calculated were used to compare the MS response for each conjugated-aglycone pair.

[3] = after orange (hesperidin) extract
[4] = human, oral, 1.95 g, after orange (hesperidin) extract
[5] = human, oral, 1.95 g, after orange (hesperidin) extract, read-out: Tmax
[6] = human, oral, 3.1 g, after lemon extract
[7] = human, oral, 3.1 g, after lemon extract, read-out: Tmax
[8] = lemon extract (3.1 g, 260 mg eriocitrin)
[9] = orange extract (1.95 g, 260 mg hesperidin)

Structure (SMILES)	Occurrence Plasma LE (number of volunteers in whom the metabolite was detected) [1]	Occurrence Plasma OE (number of volunteers in whom the metabolite was detected) [1]	Tmax [1, 3] [h]	Cmax [1, 4] [nM]	AUC(0-t) [1, 4] [µM·h]	Tmax [1, 5] [h]	Cmax [1, 6] [nM]	AUC(0-t) [1, 6] [µM·h]	Tmax [1, 7] [h]	Urinary excretion F1 [2, 8] [µg/mg creatinine]	Urinary excretion F2 ([2]; lemon extract) [µg/mg creatinine]	Urinary excretion F3 ([2]; lemon extract) [µg/mg creatinine]	Urinary excretion F4 ([2]; lemon extract) [µg/mg creatinine]	Urinary excretion F1 [2, 9] [µg/mg creatinine]	Urinary excretion Total F ([2]; orange extract) [µg/mg creatinine]	Urinary excretion F2 ([2]; orange extract) [µg/mg creatinine]	Urinary excretion F3 ([2]; orange extract) [µg/mg creatinine]	Urinary excretion F4 ([2]; orange extract) [µg/mg creatinine]	Occurrence Urine LE (number of volunteers in whom the metabolite was detected) [2]	Occurrence Urine OE (number of volunteers in whom the metabolite was detected) [2]	further results
O=C1CC(c2ccc(OC3OC(C(=O)O)C(O)C(O)C3O)cc2)Oc2cc(O)cc(O)c21 (stereo not drawn) [M5, Naringenin 4′-O-glucuronide]	16	14	7.7 ± 2.0	7.3 ± 5.9	0.0267 ± 0.0277	7.5	35.8 ± 25.9	0.129 ± 0.124	5.5	0.8 ± 0.5	1.7 ± 2.7	1.3 ± 1.5	0.4 ± 0.3	0.1 ± 0.1	1.0 ± 1.5	0.3 ± 0.5	0.3 ± 0.4	0.3 ± 0.5	16	16	Tmax ([1]; after lemon extract): 5.7 ± 2.3 h; Urinary excretion Total F ([2]; lemon extract): 4.2 ± 5.0 µg/mg creatinine
COc1ccc(C2CC(=O)c3c(O)cc(OC4OC(C(=O)O)C(O)C(O)C4O)cc3O2)cc1O (stereo not drawn) [M7, Hesperetin 7-O-glucuronide]	16	16	8.3 ± 1.6	49.6 ± 51.7	0.177 ± 0.249	8.5	169 ± 109	0.703 ± 0.591	6.5	1.2 ± 1.4	4.0 ± 4.7	2.7 ± 2.5	0.6 ± 0.6	0.2 ± 0.6	5.6 ± 13.2	2.1 ± 5.7	2.2 ± 3.6	1.1 ± 3.3	16	16	Tmax ([1]; after lemon extract): 6.3 ± 2.0 h; Urinary excretion Total F ([2]; lemon extract): 8.5 ± 9.2 µg/mg creatinine; Urinary excretion after lemon extract vs. orange extract [2]: around 2 fold
COc1ccc(C2CC(=O)c3c(O)cc(O)cc3O2)cc1OC1OC(C(=O)O)C(O)C(O)C1O (stereo not drawn) [M8, Hesperetin 3′-O-glucuronide]	16	16	8.4 ± 1.6	107 ± 128	0.409 ± 0.643	8.5	198 ± 104	0.803 ± 0.569	6.5	2.1 ± 2.3	10.7 ± 11.3	9.2 ± 7.7	2.2 ± 2.4	0.5 ± 1.5	9.9 ± 18.9	4.3 ± 11.5	3.3 ± 4.2	1.8 ± 1.6	16	16	Tmax ([1]; after lemon extract): 6.4 ± 2.0 h; Urinary excretion Total F ([2]; lemon extract): 24.2 ± 23.7 µg/mg creatinine
O=C1C[C@@H](c2ccc(O)c(O)c2)Oc2cc(O)cc(O)c21 [M12, Eriodictyol]	16	0																	14	4	
COc1ccc(C2CC(=O)c3c(O)cc(O)cc3O2)cc1OS(=O)(=O)O (stereo not drawn) [M14, Hesperetin 3′-O-sulfate]	16	16	8.4 ± 1.5	178 ± 286	0.635 ± 1.17	8.5	527 ± 358	2.04 ± 1.81	6.5 ± 1.9	1.9 ± 2.6	4.3 ± 4.5	3.3 ± 3.1	0.7 ± 0.6	0.1 ± 0.3	3.8 ± 7.3	1.2 ± 3.3	1.9 ± 3.1	0.6 ± 0.6	16	16	Urinary excretion after lemon extract vs. orange extract [2]: around 2 fold
O=C1C[C@@H](c2ccc(O)cc2)Oc2cc(O)cc(O)c21 [M15, Naringenin]	6	2																	9	5	
